“And” between values parts separate entries of the source, which are not always exact repeats. Equal entries are not always repeated. Numbers after ± are expanded uncertainties.
Key:
[1] = excess molar enthalpy (molar enthalpy of mixing); xn = mol fraction of the nth substance listed; conditions: 298.15 K, 101 kPa, Liquid, Flow calorimetry
[2] = heat capacity at constant pressure per volume; xn = mol fraction of the nth substance listed; conditions: 298.15 K, 101 kPa, Liquid, Flow calorimetry
[3] = xn = mol fraction of the nth substance listed; conditions: 298.15 K, 101 kPa, Liquid

Compound CCCCCCCCC [nonane] + C1CCOC1 has an excess molar enthalpy ([1]; x2 = 0.104) of 0.0714 ± 0.00115 kcal/mol, an excess molar enthalpy ([1]; x2 = 0.197) of 0.124 ± 0.00191 kcal/mol and an excess molar enthalpy ([1]; x2 = 0.355) of 0.189 ± 0.00263 kcal/mol. For the same compound, the excess molar enthalpy ([1]; x2 = 0.485) was 0.213 ± 0.00263 kcal/mol, the excess molar enthalpy ([1]; x2 = 0.595) was 0.212 ± 0.00263 kcal/mol and the excess molar enthalpy ([1]; x2 = 0.688) was 0.195 ± 0.00311 kcal/mol. The excess molar enthalpy ([1]; x2 = 0.768) was 0.169 ± 0.00382 kcal/mol, the excess molar enthalpy ([1]; x2 = 0.837) was 0.134 ± 0.00502 kcal/mol and the excess molar enthalpy ([1]; x2 = 0.898) was 0.0974 ± 0.00669 kcal/mol. The excess molar enthalpy ([1]; x2 = 0.952) was 0.0514 kcal/mol and 0.0513 kcal/mol.
Compound C1CCOC1 [tetrahydrofuran] + CCCCCCCCO has a heat capacity ([2]; x1 = 0.0608) of 1927000 ± 4000 J/K/m3, a heat capacity ([2]; x1 = 0.088) of 1918000 ± 4000 J/K/m3 and a heat capacity ([2]; x1 = 0.1954) of 1884000 ± 4000 J/K/m3. For the same compound, the heat capacity ([2]; x1 = 0.3048) was 1850000 ± 4000 J/K/m3, the heat capacity ([2]; x1 = 0.4026) was 1817000 ± 4000 J/K/m3 and the heat capacity ([2]; x1 = 0.5009) was 1781000 ± 4000 J/K/m3. For the same compound, the heat capacity ([2]; x1 = 0.6069) was 1737000 ± 4000 J/K/m3, the heat capacity ([2]; x1 = 0.7044) was 1691000 ± 3000 J/K/m3 and the heat capacity ([2]; x1 = 0.7994) was 1640000 ± 3000 J/K/m3. It also gave a heat capacity ([2]; x1 = 0.9) of 1580000 ± 3000 J/K/m3, a heat capacity ([2]; x1 = 0.9523) of 1546000 ± 3000 J/K/m3 and a mass density ([3]; x1 = 0.0608) of 823.33 ± 0.42 kg/m3. For the same compound, the mass density ([3]; x1 = 0.088) was 824.18 ± 0.41 kg/m3, the mass density ([3]; x1 = 0.1954) was 827.86 ± 0.37 kg/m3 and the mass density ([3]; x1 = 0.3048) was 832.05 ± 0.35 kg/m3. It also gave a mass density ([3]; x1 = 0.4026) of 836.34 ± 0.32 kg/m3, a mass density ([3]; x1 = 0.5009) of 841.27 ± 0.3 kg/m3 and a mass density ([3]; x1 = 0.6069) of 847.37 ± 0.28 kg/m3. For the same compound, the mass density ([3]; x1 = 0.7044) was 853.86 ± 0.26 kg/m3, the mass density ([3]; x1 = 0.7994) was 861.36 ± 0.24 kg/m3 and the mass density ([3]; x1 = 0.9) was 870.65 ± 0.22 kg/m3. For the same compound, the mass density ([3]; x1 = 0.9523) was 876.26 ± 0.22 kg/m3.
Work on C1CCOC1 [tetrahydrofuran] + CCCCO yielded a heat capacity ([2]; x1 = 0.0456) of 1918000 ± 4000 J/K/m3, a heat capacity ([2]; x1 = 0.0951) of 1901000 ± 4000 J/K/m3 and a heat capacity ([2]; x1 = 0.1935) of 1867000 ± 4000 J/K/m3. For the same compound, the heat capacity ([2]; x1 = 0.2997) was 1830000 ± 4000 J/K/m3, the heat capacity ([2]; x1 = 0.3963) was 1794000 ± 4000 J/K/m3 and the heat capacity ([2]; x1 = 0.5009) was 1753000 ± 4000 J/K/m3. It also gave a heat capacity ([2]; x1 = 0.5988) of 1711000 ± 3000 J/K/m3, a heat capacity ([2]; x1 = 0.6962) of 1667000 ± 3000 J/K/m3 and a heat capacity ([2]; x1 = 0.8012) of 1615000 ± 3000 J/K/m3. It also gave a heat capacity ([2]; x1 = 0.9017) of 1564000 ± 3000 J/K/m3, a heat capacity ([2]; x1 = 0.9472) of 1541000 ± 3000 J/K/m3 and a mass density ([3]; x1 = 0.0456) of 808.89 ± 0.28 kg/m3. The mass density ([3]; x1 = 0.0951) was 812.34 ± 0.28 kg/m3, the mass density ([3]; x1 = 0.1935) was 819.24 ± 0.27 kg/m3 and the mass density ([3]; x1 = 0.2997) was 826.84 ± 0.26 kg/m3. For the same compound, the mass density ([3]; x1 = 0.3963) was 833.86 ± 0.26 kg/m3, the mass density ([3]; x1 = 0.5009) was 841.67 ± 0.25 kg/m3 and the mass density ([3]; x1 = 0.5988) was 849.16 ± 0.24 kg/m3. The mass density ([3]; x1 = 0.6962) was 856.68 ± 0.23 kg/m3, the mass density ([3]; x1 = 0.8012) was 865.12 ± 0.22 kg/m3 and the mass density ([3]; x1 = 0.9017) was 873.45 ± 0.22 kg/m3. For the same compound, the mass density ([3]; x1 = 0.9472) was 877.34 ± 0.21 kg/m3.
Compound C1CCOC1 [tetrahydrofuran] + CCCO has a heat capacity ([2]; x1 = 0.0482) of 1911000 ± 4000 J/K/m3, a heat capacity ([2]; x1 = 0.103) of 1891000 ± 4000 J/K/m3 and a heat capacity ([2]; x1 = 0.1944) of 1858000 ± 4000 J/K/m3. The heat capacity ([2]; x1 = 0.3022) was 1819000 ± 4000 J/K/m3, the heat capacity ([2]; x1 = 0.3994) was 1782000 ± 4000 J/K/m3 and the heat capacity ([2]; x1 = 0.499) was 1742000 ± 4000 J/K/m3. It also gave a heat capacity ([2]; x1 = 0.5994) of 1699000 ± 3000 J/K/m3, a heat capacity ([2]; x1 = 0.7016) of 1654000 ± 3000 J/K/m3 and a heat capacity ([2]; x1 = 0.795) of 1610000 ± 3000 J/K/m3. For the same compound, the heat capacity ([2]; x1 = 0.9017) was 1560000 ± 3000 J/K/m3, the heat capacity ([2]; x1 = 0.9435) was 1541000 ± 3000 J/K/m3 and the mass density ([3]; x1 = 0.0482) was 804.27 ± 0.32 kg/m3. It also gave a mass density ([3]; x1 = 0.103) of 809.19 ± 0.31 kg/m3, a mass density ([3]; x1 = 0.1944) of 817.24 ± 0.3 kg/m3 and a mass density ([3]; x1 = 0.3022) of 826.44 ± 0.28 kg/m3. It also gave a mass density ([3]; x1 = 0.3994) of 834.52 ± 0.27 kg/m3, a mass density ([3]; x1 = 0.499) of 842.64 ± 0.26 kg/m3 and a mass density ([3]; x1 = 0.5994) of 850.66 ± 0.25 kg/m3. It also gave a mass density ([3]; x1 = 0.7016) of 858.7 ± 0.24 kg/m3, a mass density ([3]; x1 = 0.795) of 866.01 ± 0.23 kg/m3 and a mass density ([3]; x1 = 0.9017) of 874.29 ± 0.22 kg/m3. The mass density ([3]; x1 = 0.9435) was 877.53 ± 0.21 kg/m3.
In the case of C1CCOC1 [tetrahydrofuran] + CCO, the heat capacity ([2]; x1 = 0.0532) is reported as 1907000 ± 4000 J/K/m3, the heat capacity ([2]; x1 = 0.0989) is reported as 1889000 ± 4000 J/K/m3 and the heat capacity ([2]; x1 = 0.2018) is reported as 1849000 ± 4000 J/K/m3. It also gave a heat capacity ([2]; x1 = 0.3084) of 1808000 ± 4000 J/K/m3, a heat capacity ([2]; x1 = 0.4) of 1772000 ± 4000 J/K/m3 and a heat capacity ([2]; x1 = 0.5015) of 1731000 ± 4000 J/K/m3. It also gave a heat capacity ([2]; x1 = 0.6074) of 1688000 ± 3000 J/K/m3, a heat capacity ([2]; x1 = 0.711) of 1643000 ± 3000 J/K/m3 and a heat capacity ([2]; x1 = 0.8104) of 1599000 ± 3000 J/K/m3. The heat capacity ([2]; x1 = 0.9048) was 1556000 ± 3000 J/K/m3, the heat capacity ([2]; x1 = 0.9426) was 1540000 ± 3000 J/K/m3 and the mass density ([3]; x1 = 0.0532) was 792.12 ± 17 kg/m3. For the same compound, the mass density ([3]; x1 = 0.0989) was 798.14 ± 16 kg/m3, the mass density ([3]; x1 = 0.2018) was 810.67 ± 13 kg/m3 and the mass density ([3]; x1 = 0.3084) was 822.54 ± 9.7 kg/m3. It also gave a mass density ([3]; x1 = 0.4) of 832.02 ± 7.4 kg/m3, a mass density ([3]; x1 = 0.5015) of 841.8 ± 5.2 kg/m3 and a mass density ([3]; x1 = 0.6074) of 851.3 ± 3.4 kg/m3. It also gave a mass density ([3]; x1 = 0.711) of 860.02 ± 1.9 kg/m3, a mass density ([3]; x1 = 0.8104) of 867.85 ± 0.98 kg/m3 and a mass density ([3]; x1 = 0.9048) of 875.03 ± 0.42 kg/m3. For the same compound, the mass density ([3]; x1 = 0.9426) was 877.76 ± 0.29 kg/m3.
With C1CCOC1 [tetrahydrofuran] + CO the heat capacity ([2]; x1 = 0.0989) was 1907000 ± 4000 J/K/m3, the heat capacity ([2]; x1 = 0.195) was 1850000 ± 4000 J/K/m3 and the heat capacity ([2]; x1 = 0.2967) was 1797000 ± 4000 J/K/m3. For the same compound, the heat capacity ([2]; x1 = 0.4006) was 1747000 ± 4000 J/K/m3, the heat capacity ([2]; x1 = 0.4848) was 1714000 ± 3000 J/K/m3 and the heat capacity ([2]; x1 = 0.5999) was 1667000 ± 3000 J/K/m3. The heat capacity ([2]; x1 = 0.6968) was 1631000 ± 3000 J/K/m3, the heat capacity ([2]; x1 = 0.7926) was 1594000 ± 3000 J/K/m3 and the heat capacity ([2]; x1 = 0.8946) was 1555000 ± 3000 J/K/m3. It also gave a mass density ([3]; x1 = 0.0989) of 804.78 ± 0.42 kg/m3, a mass density ([3]; x1 = 0.195) of 819.46 ± 0.38 kg/m3 and a mass density ([3]; x1 = 0.2967) of 832.35 ± 0.35 kg/m3. It also gave a mass density ([3]; x1 = 0.4006) of 843.35 ± 0.32 kg/m3, a mass density ([3]; x1 = 0.4848) of 851 ± 0.29 kg/m3 and a mass density ([3]; x1 = 0.5999) of 859.93 ± 0.27 kg/m3. It also gave a mass density ([3]; x1 = 0.6968) of 866.37 ± 0.25 kg/m3, a mass density ([3]; x1 = 0.7926) of 871.94 ± 0.23 kg/m3 and a mass density ([3]; x1 = 0.8946) of 877.17 ± 0.22 kg/m3.
